Article PMC7933091 (2021)

Test system: SC-34 (DNA, aptamer) ACCTTAAGTGGGGTTCGGGTGGAGTTTATGGGGT
Test: ITC, single-site model
Settings: 20 mM NaCl, 0.5 mM MgCl2; 10 mM Tris, pH 7.4, 23 °C; same value in low-salt PBS

KD: ~ 300 nM
SMILES: CCC[C@H](C(=O)c1ccc2c(c1)OCO2)N1CCCC1
